Results published in patent US8921368B2, “Pyrrolopyridazine JAK3 inhibitors and their use for the treatment of inflammatory and autoimmune diseases” (Bristol-Myers Squibb Company, priority 2011, dated 2014).

Tests used:
[1] = biological target: JAK1 (Homo sapiens (Human), UniProt P23458); assay: JAK1 Kinase Assay Protocol; type: biochemical; conditions: GST-JAK1; ATP 100 μM; Caliper LabChip; read-out: LLE_JAK1 (IC50)
Procedure: JAK1 Kinase Assay Protocol
The assay reactions were performed in U-bottom 384-well plates. The final assay volume was 30 μl prepared from 15 μl additions of enzyme and substrates (fluoresceinated peptide and ATP) and test compounds in assay buffer (20 mM HEPES pH 7.4, 10 mM MgCl2, 25 mM beta-glycerol phosphate, 0.015% Brij35 and 4 mM DTT). The reaction was initiated by the combination of GST-JAK1 enzyme with substrates and test compounds. The reactions were incubated at room temperature for 3 hours and terminated by adding 60 μl of 35 mM EDTA to each sample. […] The final concentration of reagents in the assays was: ATP, 100 μM; fluoresceinated peptide, 1.5 μM; GST-JAK1, 12.5 nM; and DMSO, 1.6%. […] Compounds were dissolved at 10 mM in dimethylsulfoxide (DMSO) and evaluated at eleven concentrations. IC50 values were derived by non-linear regression analysis.

[2] = biological target: JAK3 (Homo sapiens (Human), UniProt P52333); assay: JAK3 Kinase Assay (Caliper / Filter protocols); type: biochemical; conditions: JAK3 kinase inhibition; ATP 8 μM; read-out: LLE_JAK3_FB (IC50)
Procedure: JAK3 Kinase Assay Protocol (Caliper)
The assay reactions were performed in U-bottom 384-well plates. […] The reaction was initiated by the combination of GST-JAK3 enzyme with substrates and test compounds. The reactions were incubated at room temperature for 3 hours and terminated by adding 60 μl of 35 mM EDTA to each sample. […] Compounds were dissolved at 10 mM in dimethylsulfoxide (DMSO) and evaluated at eleven concentrations. IC50 values were derived by non-linear regression analysis.
JAK3 Kinase Assay Protocol (Filter)
Kinase reactions consisted of 5 ng of JAK3 enzyme, 30 uM CSKtide substrate, 0.2 μCi ^33P γ-ATP, 8 μM ATP in 30 μl kinase buffer (50 mM Hepes, pH 8.0, 10 mM MgCl2, 1 mM EGTA, 2 mM DTT). Reactions were incubated for 30 minutes at room temperature and stopped by the addition of cold trichloroacetic acid (TCA) to a final concentration of 15%. TCA precipitates were collected onto 384 well phosphocellulose filters (Millipore) using a Platemate to transfer the reaction mixture, washed on an EMBLA plate washer and the filters were quantitated using a TopCount 384-well liquid scintillation counter. […] Compounds were dissolved at 10 mM in dimethylsulfoxide (DMSO) and evaluated at six concentrations, each in triplicate. The final concentration of DMSO in the assay equaled 2%. IC50 values were derived by non-linear regression analysis.

Chain of JAK1 (P23458 whole entry): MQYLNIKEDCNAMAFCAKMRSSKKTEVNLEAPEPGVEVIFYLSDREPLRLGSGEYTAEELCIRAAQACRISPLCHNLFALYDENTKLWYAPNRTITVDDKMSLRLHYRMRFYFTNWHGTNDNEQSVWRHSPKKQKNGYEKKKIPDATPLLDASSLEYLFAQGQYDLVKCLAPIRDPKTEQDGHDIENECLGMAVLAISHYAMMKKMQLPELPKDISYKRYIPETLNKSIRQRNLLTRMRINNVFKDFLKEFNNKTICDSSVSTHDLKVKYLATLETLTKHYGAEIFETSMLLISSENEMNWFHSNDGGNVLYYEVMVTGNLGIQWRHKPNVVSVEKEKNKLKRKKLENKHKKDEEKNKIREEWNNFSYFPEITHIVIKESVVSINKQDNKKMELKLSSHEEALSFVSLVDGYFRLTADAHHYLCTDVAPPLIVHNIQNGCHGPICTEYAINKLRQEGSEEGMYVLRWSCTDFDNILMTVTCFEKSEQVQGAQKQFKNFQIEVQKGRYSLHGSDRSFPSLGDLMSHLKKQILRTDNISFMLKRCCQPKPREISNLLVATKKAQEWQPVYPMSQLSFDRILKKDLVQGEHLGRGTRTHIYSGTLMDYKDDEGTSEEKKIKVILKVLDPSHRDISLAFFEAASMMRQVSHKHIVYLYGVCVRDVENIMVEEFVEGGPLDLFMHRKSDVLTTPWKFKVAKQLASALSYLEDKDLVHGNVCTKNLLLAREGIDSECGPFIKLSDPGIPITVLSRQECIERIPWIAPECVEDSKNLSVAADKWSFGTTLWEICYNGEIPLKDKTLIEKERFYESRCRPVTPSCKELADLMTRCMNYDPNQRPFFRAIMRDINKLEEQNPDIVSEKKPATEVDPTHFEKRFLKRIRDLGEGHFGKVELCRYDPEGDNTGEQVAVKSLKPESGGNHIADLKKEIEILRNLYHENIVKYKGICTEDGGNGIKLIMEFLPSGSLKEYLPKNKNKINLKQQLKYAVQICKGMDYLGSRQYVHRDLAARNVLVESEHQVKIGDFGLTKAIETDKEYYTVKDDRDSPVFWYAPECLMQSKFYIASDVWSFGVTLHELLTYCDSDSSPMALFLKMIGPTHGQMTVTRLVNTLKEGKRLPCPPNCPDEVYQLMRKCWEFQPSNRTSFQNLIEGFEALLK
Chain of JAK3 (P52333 whole entry): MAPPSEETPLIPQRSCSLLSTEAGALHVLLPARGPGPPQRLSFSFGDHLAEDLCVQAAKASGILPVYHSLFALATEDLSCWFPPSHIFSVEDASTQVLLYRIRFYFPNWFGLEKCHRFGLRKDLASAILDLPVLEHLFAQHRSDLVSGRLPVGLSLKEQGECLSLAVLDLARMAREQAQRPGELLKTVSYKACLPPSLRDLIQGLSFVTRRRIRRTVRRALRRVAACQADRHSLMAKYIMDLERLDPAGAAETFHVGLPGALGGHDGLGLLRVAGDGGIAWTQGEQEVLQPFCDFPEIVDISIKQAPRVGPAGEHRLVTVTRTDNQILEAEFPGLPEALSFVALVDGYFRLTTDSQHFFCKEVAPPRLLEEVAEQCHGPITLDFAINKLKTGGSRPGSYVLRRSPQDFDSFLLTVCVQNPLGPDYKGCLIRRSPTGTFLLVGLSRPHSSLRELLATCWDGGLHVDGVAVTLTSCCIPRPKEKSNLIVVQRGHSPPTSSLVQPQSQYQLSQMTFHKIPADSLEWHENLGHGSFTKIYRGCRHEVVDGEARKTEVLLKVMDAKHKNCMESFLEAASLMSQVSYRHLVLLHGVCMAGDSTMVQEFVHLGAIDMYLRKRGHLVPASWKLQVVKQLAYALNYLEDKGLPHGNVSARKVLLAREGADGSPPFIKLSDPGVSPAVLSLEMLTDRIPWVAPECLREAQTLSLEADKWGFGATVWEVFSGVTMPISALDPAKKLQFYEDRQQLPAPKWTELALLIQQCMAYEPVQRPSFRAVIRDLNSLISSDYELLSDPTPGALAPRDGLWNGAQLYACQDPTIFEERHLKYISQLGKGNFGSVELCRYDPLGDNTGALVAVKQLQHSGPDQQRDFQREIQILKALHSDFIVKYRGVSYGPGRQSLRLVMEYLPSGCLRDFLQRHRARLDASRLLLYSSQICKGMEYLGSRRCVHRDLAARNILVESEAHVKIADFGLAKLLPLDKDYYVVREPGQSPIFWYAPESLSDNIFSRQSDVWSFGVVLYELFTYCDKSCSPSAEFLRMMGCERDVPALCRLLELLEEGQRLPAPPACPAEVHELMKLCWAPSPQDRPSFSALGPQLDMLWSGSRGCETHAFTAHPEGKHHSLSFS

CN(C)C(=O)c1ccc(-c2cc3c(N[C@@H]4CC[C@](C)(N)C4(C)C)c(C(N)=O)cnn3c2)cc1 [Example 266, 4-(((1R,3S)-3-amino-2,2,3-trimethylcyclopentyl)amino)-6-(4-(dimethylcarbamoyl)phenyl)pyrrolo[1,2-b]pyridazine-3-carboxamide]
IC50 [1]: 0.6 nM | IC50 [2]: 0.8 nM

CC1(C)[C@H](Nc2c(C(N)=O)cnn3cc(-c4cncc(C(=O)O)c4)cc23)CC[C@]1(C)N [Example 276, 5-(4-(((1R,3S)-3-amino-2,2,3-trimethylcyclopentyl)amino)-3-carbamoylpyrrolo[1,2-b]pyridazin-6-yl)nicotinic acid]
IC50 [1]: 35.2 nM | IC50 [2]: 15 nM

C[C@]1(F)CCC[C@H]1Nc1c(C(N)=O)cnn2cc(-c3cccc(C(N)=O)c3)cc12 (racemic) [Example 94]
IC50 [1]: 1.4 nM | IC50 [2]: 0.5 nM

Cc1cccc(-c2cc3c(N[C@@H]4CCC[C@]4(C)F)c(C(N)=O)cnn3c2)c1 (racemic) [Example 72]
IC50 [1]: 1.3 nM | IC50 [2]: 0.3 nM

CC1(C)[C@H](Nc2c(C(N)=O)cnn3cc(-c4ccc(C(=O)NC5CC5)cc4)cc23)CC[C@]1(C)N [Example 221, 4-(((1R,3S)-3-amino-2,2,3-trimethylcyclopentyl)amino)-6-(4-(cyclopropylcarbamoyl)phenyl)pyrrolo[1,2-b] pyridazine-3-carboxamide]
IC50 [1]: 0.7 nM | IC50 [2]: 1.6 nM

Cc1ccncc1-c1cc2c(N[C@@H]3CC[C@](C)(N)C3(C)C)c(C(N)=O)cnn2c1 [Example 195, 4-(((1R,3S)-3-amino-2,2,3-trimethylcyclopentyl)amino)-6-(4-methyl-3-pyridinyl)pyrrolo[1,2-b] pyridazine-3-carboxamide]
IC50 [1]: 1.3 nM | IC50 [2]: 6.1 nM

CC1(C)[C@H](Nc2c(C(N)=O)cnn3cc(N4CCCC4=O)cc23)CC[C@]1(C)N [Example 328]
IC50 [1]: 20.2 nM | IC50 [2]: 1.7 nM

CC1(C)[C@H](Nc2c(C(N)=O)cnn3cc(-c4cccnc4)cc23)CC[C@]1(C)N [Example 192, 4-(((1R,3S)-3-amino-2,2,3-trimethylcyclopentyl)amino)-6-(3-pyridinyl) pyrrolo[1,2-b]pyridazine-3-carboxamide]
IC50 [1]: 0.7 nM | IC50 [2]: 0.5 nM

CC1(C)[C@H](Nc2c(C(N)=O)cnn3cc(-c4ccccc4)cc23)CC[C@@]1(C)O [Example 293, 4-(((1R,3R)-3-hydroxy-2,2,3-trimethylcyclopentyl)amino)-6-phenylpyrrolo[1,2-b]pyridazine-3-carboxamide]
IC50 [1]: 0.1 nM | IC50 [2]: 0.2 nM

COc1ncc(-c2cc3c(N[C@@H]4CC[C@](C)(N)C4(C)C)c(C(N)=O)cnn3c2)cn1 [Example 278, 4-(((1R,3S)-3-amino-2,2,3-trimethylcyclopentyl)amino)-6-(2-methoxy-5-pyrimidinyl)pyrrolo[1,2-b]pyridazine-3-carboxamide]
IC50 [1]: 25.1 nM | IC50 [2]: 8.4 nM

C[C@]1(O)CCCC[C@@H]1Nc1c(C(N)=O)cnn2cc(-c3ccccc3)cc12 (racemic) [Example 314, (+/−)-4-(((1S,2S)-2-hydroxy-2-methylcyclohexyl)amino)-6-phenylpyrrolo[1,2-b]-pyridazine-3-carboxamide]
IC50 [1]: 17.4 nM | IC50 [2]: 5.1 nM

CC(C)c1ccccc1-c1cc2c(N[C@@H]3CCC[C@]3(C)F)c(C(N)=O)cnn2c1 (racemic) [Example 60]
IC50 [1]: 253 nM | IC50 [2]: 136 nM

CC1(C)[C@H](Nc2c(C(N)=O)cnn3cc(-c4cccc5ncccc45)cc23)CC[C@]1(C)N [Example 272, 4-(((1R,3S)-3-amino-2,2,3-trimethylcyclopentyl)amino)-6-(5-quinolinyl)pyrrolo[1,2-b]pyridazine-3-carboxamide]
IC50 [1]: 5.4 nM | IC50 [2]: 13.8 nM

CC1(C)[C@H](Nc2c(C(N)=O)cnn3cc(-c4ccc(F)nc4)cc23)CC[C@]1(C)C(N)=O [Example 339, 4-(((1R,3S)-3-carbamoyl-2,2,3-trimethylcyclopentyl)amino)-6-(6-fluoropyridin-3-yl)pyrrolo[1,2-b]pyridazine-3-carboxamide]
IC50 [1]: 2.2 nM | IC50 [2]: 1.9 nM

CC1(C)[C@H](Nc2c(C(N)=O)cnn3cc(NS(C)(=O)=O)cc23)CC[C@@]1(C)O (racemic) [Example 3]
IC50 [1]: 45.8 nM | IC50 [2]: 6 nM

C[C@]1(O)CC[C@@H](Nc2c(C(N)=O)cnn3cc(-c4ccc(C#N)cc4)cc23)CC1 [Example 167, 6-(4-cyanophenyl)-4-((cis-4-hydroxy-4-methylcyclohexyl)amino)pyrrolo[1,2-b]pyridazine-3-carboxamide]
IC50 [1]: 6.1 nM | IC50 [2]: 1.6 nM

CC(=O)Nc1cc2c(N[C@@H]3CC[C@@](C)(O)C3(C)C)c(C(N)=O)cnn2c1 (racemic) [Example 7]
IC50 [1]: 8.2 nM | IC50 [2]: 0.9 nM

CC1(C)[C@H](Nc2c(C(N)=O)cnn3cc(-c4ccc(CO)cc4)cc23)CC[C@]1(C)N [Example 271, 4-(((1R,3S)-3-amino-2,2,3-trimethylcyclopentyl)amino)-6-(4-(hydroxymethyl)phenyl) pyrrolo[1,2-b]pyridazine-3-carboxamide]
IC50 [1]: 0.7 nM | IC50 [2]: 0.3 nM

Cn1nccc1-c1cc2c(N[C@@H]3C[C@@H](O)[C@@H](O)C3(C)C)c(C(N)=O)cnn2c1 (racemic) [Example 142]
IC50 [1]: 10.9 nM | IC50 [2]: 5.6 nM
